Data from PubChem BioAssay (NCI).
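All cell lines were grown in 96-well plates and treated with compound for 48 hours. TGI: concentration producing complete growth inhibition.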

Columns and labels:
Assay in all cases: DTP human tumour cell line panel, 48 h
[1] = test system: 786-0 renal
[2] = test system: A498 renal
[3] = test system: A549 NSCLC
[4] = test system: ACHN renal
[5] = test system: BT-549 breast
[6] = test system: CAKI-1 renal
[7] = test system: CCRF-CEM leukemia
[8] = test system: COLO 205 colon
[9] = test system: DU-145 prostate
[10] = test system: EKVX NSCLC
[11] = test system: HCC-2998 colon
[12] = test system: HCT-116 colon
[13] = test system: HL-60(TB) leukemia
[14] = test system: HOP-62 NSCLC
[15] = test system: HOP-92 NSCLC
[16] = test system: HS 578T breast
[17] = test system: HT29 colon
[18] = test system: IGROV1 ovarian
[19] = test system: K-562 leukemia
[20] = test system: KM12 colon
[21] = test system: LOX IMVI melanoma
[22] = test system: M14 melanoma
[23] = test system: MALME-3M melanoma
[24] = test system: MCF7 breast
[25] = test system: MDA-MB-231 breast
[26] = test system: MDA-MB-435
[27] = test system: MDA-N
[28] = test system: MOLT-4 leukemia
[29] = test system: NCI-H226 lung
[30] = test system: NCI-H23 lung
[31] = test system: NCI-H460 lung
[32] = test system: NCI-H522 lung
[33] = test system: NCI/ADR-RES ovarian
[34] = test system: OVCAR-3 ovarian
[35] = test system: OVCAR-4 ovarian
[36] = test system: OVCAR-5 ovarian
[37] = test system: PC-3 prostate
[38] = test system: RPMI-8226 leukemia
[39] = test system: RXF 393 renal
[40] = test system: SF-268 CNS
[41] = test system: SF-295 CNS
[42] = test system: SF-539 CNS
[43] = test system: SK-MEL-2 melanoma
[44] = test system: SK-MEL-28 melanoma
[45] = test system: SK-MEL-5 melanoma
[46] = test system: SK-OV-3 ovarian
[47] = test system: SN12C renal
[48] = test system: SNB-19 CNS
[49] = test system: SR leukemia
[50] = test system: SW-620 colon
[51] = test system: TK-10 renal
[52] = test system: U251 CNS
[53] = test system: UACC-257 melanoma
[54] = test system: UACC-62 melanoma
[55] = test system: UO-31 renal
[56] = test system: HCT-15 colon
[57] = test system: SNB-75 CNS
[58] = test system: T-47D breast
[59] = test system: OVCAR-8 ovarian

Structure (SMILES): C=C(Cl)C(=C)CCC(Cl)C(C)C (stereo not given)
- TGI [1]: > 100 µM
- TGI [2]: > 100 µM
- TGI [3]: > 100 µM
- TGI [4]: > 100 µM
- TGI [5]: > 100 µM
- TGI [6]: > 100 µM
- TGI [7]: > 100 µM
- TGI [8]: > 100 µM
- TGI [9]: > 100 µM
- TGI [10]: > 100 µM
- TGI [11]: > 100 µM
- TGI [12]: > 100 µM
- TGI [13]: > 100 µM
- TGI [14]: > 100 µM
- TGI [15]: > 100 µM
- TGI [16]: > 100 µM
- TGI [17]: > 100 µM
- TGI [18]: > 100 µM
- TGI [19]: > 100 µM
- TGI [20]: > 100 µM
- TGI [21]: > 100 µM
- TGI [22]: > 100 µM
- TGI [23]: > 100 µM
- TGI [24]: > 100 µM
- TGI [25]: > 100 µM
- TGI [26]: > 100 µM
- TGI [27]: > 100 µM
- TGI [28]: > 100 µM
- TGI [29]: > 100 µM
- TGI [30]: > 100 µM
- TGI [31]: > 100 µM
- TGI [32]: > 100 µM
- TGI [33]: > 100 µM
- TGI [34]: > 100 µM
- TGI [35]: > 100 µM
- TGI [36]: > 100 µM
- TGI [37]: > 100 µM
- TGI [38]: > 100 µM
- TGI [39]: > 100 µM
- TGI [40]: > 100 µM
- TGI [41]: > 100 µM
- TGI [42]: > 100 µM
- TGI [43]: > 100 µM
- TGI [44]: > 100 µM
- TGI [45]: > 100 µM
- TGI [46]: > 100 µM
- TGI [47]: > 100 µM
- TGI [48]: > 100 µM
- TGI [49]: > 100 µM
- TGI [50]: > 100 µM
- TGI [51]: > 100 µM
- TGI [52]: > 100 µM
- TGI [53]: > 100 µM
- TGI [54]: > 100 µM
- TGI [55]: > 100 µM

Structure (SMILES): CN(CCCNC(=O)c1nn(-c2ccc(Cl)cc2Cl)c2c1ccc1ccccc12)CCCNC(=O)c1nn(-c2ccc(Cl)cc2Cl)c2c1ccc1ccccc12
- TGI [1]: 2.95 µM
- TGI [2]: 2.77 µM
- TGI [3]: 3.11 µM
- TGI [4]: 3.02 µM
- TGI [6]: 3.05 µM
- TGI [7]: 5.7 µM
- TGI [8]: 3.71 µM
- TGI [9]: 3.18 µM
- TGI [10]: 3.29 µM
- TGI [11]: 2.91 µM
- TGI [12]: 3.07 µM
- TGI [56]: 3.24 µM
- TGI [13]: 2.1 µM
- TGI [14]: 3.31 µM
- TGI [15]: 3.52 µM
- TGI [16]: 3.18 µM
- TGI [17]: 3.04 µM
- TGI [18]: 3.2 µM
- TGI [19]: 2.83 µM
- TGI [20]: 3.26 µM
- TGI [21]: 3.2 µM
- TGI [22]: 3.04 µM
- TGI [23]: 3.58 µM
- TGI [24]: 2.9 µM
- TGI [25]: 3.23 µM
- TGI [26]: 3.23 µM
- TGI [27]: 3.18 µM
- TGI [28]: 3.63 µM
- TGI [29]: 4.86 µM
- TGI [30]: 3.26 µM
- TGI [31]: 3.51 µM
- TGI [32]: 2.83 µM
- TGI [33]: 3.26 µM
- TGI [34]: 3.14 µM
- TGI [35]: 3.21 µM
- TGI [36]: 3.57 µM
- TGI [37]: 3.08 µM
- TGI [38]: 4.36 µM
- TGI [39]: 3.12 µM
- TGI [40]: 3.22 µM
- TGI [41]: 3.06 µM
- TGI [42]: 3.47 µM
- TGI [43]: 3.09 µM
- TGI [45]: 3.42 µM
- TGI [46]: 3.49 µM
- TGI [47]: 3.14 µM
- TGI [48]: 2.89 µM
- TGI [57]: 3.18 µM
- TGI [49]: 1.58 µM
- TGI [58]: 3.73 µM
- TGI [51]: 3.41 µM
- TGI [52]: 3.07 µM
- TGI [53]: 3.26 µM
- TGI [54]: 3.03 µM

Structure (SMILES): O=C(O)c1oc(C(=O)O)c(C(=O)O)c1C(=O)O
- TGI [1]: > 100 µM
- TGI [2]: > 100 µM
- TGI [3]: > 100 µM
- TGI [4]: > 100 µM
- TGI [5]: > 100 µM
- TGI [6]: > 100 µM
- TGI [7]: > 100 µM
- TGI [9]: > 100 µM
- TGI [10]: > 100 µM
- TGI [12]: > 100 µM
- TGI [56]: > 100 µM
- TGI [13]: > 100 µM
- TGI [14]: > 100 µM
- TGI [15]: > 100 µM
- TGI [16]: > 100 µM
- TGI [17]: > 100 µM
- TGI [18]: > 100 µM
- TGI [19]: > 100 µM
- TGI [20]: > 100 µM
- TGI [21]: > 100 µM
- TGI [22]: > 100 µM
- TGI [23]: > 100 µM
- TGI [25]: > 100 µM
- TGI [27]: > 100 µM
- TGI [28]: > 100 µM
- TGI [29]: > 100 µM
- TGI [30]: > 100 µM
- TGI [31]: > 100 µM
- TGI [32]: > 100 µM
- TGI [33]: > 100 µM
- TGI [34]: > 100 µM
- TGI [35]: > 100 µM
- TGI [36]: > 100 µM
- TGI [59]: > 100 µM
- TGI [37]: > 100 µM
- TGI [38]: > 100 µM
- TGI [39]: > 100 µM
- TGI [40]: > 100 µM
- TGI [41]: > 100 µM
- TGI [43]: > 100 µM
- TGI [44]: > 100 µM
- TGI [45]: > 100 µM
- TGI [47]: > 100 µM
- TGI [48]: > 100 µM
- TGI [49]: > 100 µM
- TGI [50]: > 100 µM
- TGI [58]: > 100 µM
- TGI [51]: > 100 µM
- TGI [52]: > 100 µM
- TGI [53]: > 100 µM
- TGI [54]: > 100 µM
- TGI [55]: > 100 µM

Structure (SMILES): Cc1cn(C2CC(N)C(C(=O)O)O2)c(=O)[nH]c1=O (stereo not given)
- TGI [1]: > 100 µM
- TGI [2]: > 100 µM
- TGI [3]: > 100 µM
- TGI [4]: > 100 µM
- TGI [5]: > 100 µM
- TGI [6]: > 100 µM
- TGI [7]: > 100 µM
- TGI [8]: > 100 µM
- TGI [9]: > 100 µM
- TGI [10]: > 100 µM
- TGI [11]: > 100 µM
- TGI [12]: > 100 µM
- TGI [56]: > 100 µM
- TGI [13]: > 100 µM
- TGI [14]: > 100 µM
- TGI [15]: > 100 µM
- TGI [16]: > 100 µM
- TGI [17]: > 100 µM
- TGI [18]: > 100 µM
- TGI [19]: > 100 µM
- TGI [20]: > 100 µM
- TGI [22]: > 100 µM
- TGI [23]: > 100 µM
- TGI [24]: > 100 µM
- TGI [25]: > 100 µM
- TGI [26]: > 100 µM
- TGI [27]: > 100 µM
- TGI [28]: > 100 µM
- TGI [29]: > 100 µM
- TGI [30]: > 100 µM
- TGI [31]: > 100 µM
- TGI [32]: > 100 µM
- TGI [33]: > 100 µM
- TGI [34]: > 100 µM
- TGI [35]: > 100 µM
- TGI [36]: > 100 µM
- TGI [59]: > 100 µM
- TGI [37]: > 100 µM
- TGI [38]: > 100 µM
- TGI [40]: > 100 µM
- TGI [42]: > 100 µM
- TGI [43]: > 100 µM
- TGI [45]: > 100 µM
- TGI [46]: > 100 µM
- TGI [47]: > 100 µM
- TGI [48]: > 100 µM
- TGI [57]: > 100 µM
- TGI [49]: > 100 µM
- TGI [50]: > 100 µM
- TGI [51]: > 100 µM
- TGI [52]: > 100 µM
- TGI [53]: > 100 µM
- TGI [54]: > 100 µM
- TGI [55]: > 100 µM
